Test: Time-dependent behaviour in simulated gastric fluid over seven days
Format: physicochemical
From the text: In some embodiments, a gastric residence system may include one or more time-dependent disintegrating matrices instead of or in addition to one or more enteric disintegrating matrices. A time-dependent disintegrating matrix may include one or more time-dependent polymers or linkers, that is, polymers that degrade in a time-dependent manner in the gastric environment. […] Thus, a polymer that degrades in a time-dependent manner can be readily prepared by mixing Plastoid B and triacetin; the degradation time of the Plastoid B-triacetin mixture can be extended by increasing the amount of Plastoid B used in the mixture (that is, using less triacetin in the mixture), while the degradation time can be decreased by decreasing the amount of Plastoid B used in the mixture (that is, using more triacetin in the mixture).

In the case of `CC(=O)OCC(COC(C)=O)OC(C)=O` [triacetin], the “release from a polymer formulation” value is reported as “releases from a polymer formulation in a time-dependent manner”.
